{"source": "patent US7037656B2", "about": "“Methods and compositions for identifying ligands for nuclear receptors” (priority 2000, dated 2006)", "test_in_all_cases": "Yeast 6x EcRE-lacZ β-galactosidase transactivation assay", "key": {"[1]": {"test_system": "Aa ΔA/B EcR + RXRβ + GRIP1", "assay_type": "cell-based, Aedes aegypti; mouse", "conditions": "RH 5992 10 μM, 4 hours, DMSO control 0.231", "experimental": "(§1) The human RXR α (Genbank accession number X52773), mouse RXR β (Genbank accession number X66224) or mouse RXR γ (Genebank accession number X66225) subtypes were expressed in yeast-E. coli multicopy 2μ expression plasmids under regulation of CUP1 promoter with the LEU2 selective marker (1).\n(§2) Briefly, yeast cells are cultured in 5 mL of YPD liquid medium overnight at 30° C. The cell culture was diluted 1:20 in YPD media and further grown until cell density reached an O.D of 0.6. at OD600. The cells were pelleted by centrifugation and washed with 10 mL of TE+0.1M lithium acetate. Cells are then resuspended in 10 mL TE+0.1M lithium acetate and incubated at 30° C. for 1 hour. Cells are collected and resuspended in 0.5 mL of TE+ 0.1M lithium acetate. […]\n(§3) Using the transformation method described above, yeast were co-transformed with a reporter gene as shown in FIG. 2 and the expression vector encoding the full-length Aedes aegypti ecdysone receptor, Aa EcR (FIG. 7A) in the presence or absence of the Aa EcR heterodimer partner, Aa USP (a or b form, FIGS. 8A and 8B respectively). […] As the N-terminal portion of the AaEcR receptor is reported to play a role in ligand independent transactivation, an expression vector containing an N-terminal deletion in the Aa EcR was constructed (see FIG. 7B) and assessed in the β-galactosidase assays described above. […]"}, "[2]": {"molecular_target": "T1, Aa ΔA/B EcR + RXRγ + GRIP1 (Aedes aegypti, UniProt P49880)", "T1 construct": "ubiquitin (human, 76 aa) (N, cleaved yes); expressed in transfected cells", "T1 sequence (P49880 with tags, fused parts or gaps)": "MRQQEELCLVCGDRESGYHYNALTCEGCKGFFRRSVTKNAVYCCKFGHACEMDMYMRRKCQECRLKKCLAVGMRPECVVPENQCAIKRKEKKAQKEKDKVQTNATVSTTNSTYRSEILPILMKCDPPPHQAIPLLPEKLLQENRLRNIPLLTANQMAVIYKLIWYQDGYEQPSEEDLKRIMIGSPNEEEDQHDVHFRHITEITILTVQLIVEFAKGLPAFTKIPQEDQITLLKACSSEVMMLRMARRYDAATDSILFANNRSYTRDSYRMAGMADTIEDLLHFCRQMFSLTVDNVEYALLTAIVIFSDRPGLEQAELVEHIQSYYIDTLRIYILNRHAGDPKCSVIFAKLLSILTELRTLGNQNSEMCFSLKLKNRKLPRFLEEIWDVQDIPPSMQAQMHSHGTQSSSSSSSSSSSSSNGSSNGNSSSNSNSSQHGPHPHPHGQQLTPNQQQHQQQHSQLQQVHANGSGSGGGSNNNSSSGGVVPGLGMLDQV", "T1 sequence (P28705 whole entry partner)": "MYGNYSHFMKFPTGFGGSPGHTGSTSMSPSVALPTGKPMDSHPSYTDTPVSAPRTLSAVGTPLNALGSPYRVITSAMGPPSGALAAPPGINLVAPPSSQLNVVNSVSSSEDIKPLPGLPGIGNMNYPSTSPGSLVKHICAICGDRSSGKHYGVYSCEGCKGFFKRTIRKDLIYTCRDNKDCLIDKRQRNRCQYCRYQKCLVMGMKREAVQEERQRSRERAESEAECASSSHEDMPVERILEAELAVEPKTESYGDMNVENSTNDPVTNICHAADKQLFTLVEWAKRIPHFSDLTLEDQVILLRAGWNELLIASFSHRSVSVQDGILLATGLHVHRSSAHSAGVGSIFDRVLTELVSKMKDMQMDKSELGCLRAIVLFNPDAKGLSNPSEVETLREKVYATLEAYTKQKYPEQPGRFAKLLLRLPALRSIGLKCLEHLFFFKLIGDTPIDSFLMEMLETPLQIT", "assay_type": "cell-based, Aedes aegypti; mouse", "conditions": "RH 5992 10 μM, 4 hours, DMSO control 0.496", "experimental": "as §1, §2, §3"}, "[3]": {"molecular_target": "T2, Cf ΔA/B EcR + RXR γ + GRIP1 (Choristoneura fumiferana, UniProt O77240)", "T2 construct": "human ubiquitin (76 aa) (N, cleaved yes); expressed in transfected cells; host or cells: yeast (Saccharomyces cerevisiae)", "T2 sequence (O77240 entry or part of it, stated change not applied)": "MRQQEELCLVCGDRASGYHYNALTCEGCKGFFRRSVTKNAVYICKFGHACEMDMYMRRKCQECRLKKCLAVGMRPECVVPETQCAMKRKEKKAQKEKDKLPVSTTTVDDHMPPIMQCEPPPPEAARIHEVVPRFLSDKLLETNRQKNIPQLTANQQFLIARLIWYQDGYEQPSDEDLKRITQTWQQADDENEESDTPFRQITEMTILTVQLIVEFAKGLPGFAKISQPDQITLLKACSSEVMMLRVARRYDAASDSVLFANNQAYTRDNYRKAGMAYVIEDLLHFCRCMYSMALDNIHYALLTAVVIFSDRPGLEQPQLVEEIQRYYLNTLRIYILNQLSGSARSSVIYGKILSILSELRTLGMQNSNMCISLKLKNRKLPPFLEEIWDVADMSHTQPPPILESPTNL", "T2 sequence (P28705 whole entry partner)": "as the sequence (P28705 whole entry partner) above", "assay_type": "cell-based, Choristoneura fumiferana; mouse", "conditions": "RH 5992 10 μM, 4 hours, DMSO control 0.200", "experimental": "as §1\nBriefly, yeast cells are cultured in 5 mL of YPD liquid medium overnight at 30° C. The cell culture was diluted 1:20 in YPD media and further grown until cell density reached an O.D of 0.6. at OD600. The cells were pelleted by centrifugation and washed with 10 mL of TE+0.1M lithium acetate. Cells are then resuspended in 10 mL TE+0.1M lithium acetate and incubated at 30° C. for 1 hour. Cells are collected and resuspended in 0.5 mL of TE+ 0.1M lithium acetate. Aliquots of cells (50 μL), were incubated for 15 minutes at 30° C. with 1–2 μg plasmid DNA in the presence of 5 μg of denatured salmon sperm DNA as DNA carrier. In the case of co-transformation, the indicated plasmids were added simultaneously. 50% polyethyleneglycol of molecular weight 4000, diluted in TE, was added to a final concentration of 35%. DMSO was added to the transformation solution simultaneously to a final concentration 3%. The samples were mixed well by vortexing and incubated for an additional 30 minutes at 30° C. The cell mixture is then heated for 15 minutes at 42° C. […]"}}, "data": [{"smiles": "CCc1ccc(C(=O)NN(C(=O)c2cc(C)cc(C)c2)C(C)(C)C)cc1", "note": "[RH 5992, tebufenozide]", "values": [{"measurement": "β-galactosidase activity", "setting": "[1]", "value": 1.983}, {"measurement": "β-galactosidase activity", "setting": "[2]", "value": 2.666}, {"measurement": "β-galactosidase activity", "setting": "[3]", "value": 1.030}]}]}
